According to patent publication US20120046246A1, “METHODS FOR TREATING OSTEOCLAST-RELATED DISEASE, COMPOUNDS AND COMPOSITIONS THEREOF” (University of Florida Research Foundation, priority 2008, published 2012):

What follows are compounds tested on osteoclast formation in calcitriol-stimulated mouse marrow cultures (assay: osteoclastogenesis stimulated by calcitriol in mouse marrow cultures). Conditions: concentration not given.
Type: cell-based
Procedure: Enoxacin and Binhib 2 were then tested for their effects on osteoclastogenesis stimulated by calcitriol in mouse marrow cultures. The mixed cultures represent a model for the complex interactions that regulate bone resorption in vivo. […] Osteoclast and osteoblast-containing mouse bone marrow cultures are obtained as above described. 4-6-week-old Swiss-Webster mice (Harlan, Indianapolis, Ind.) are sacrificed by cervical dislocation. Femurs and tibias are dissected free of adherent tissue; the marrow is expelled by cutting both bone ends and flushing the marrow cavity with MEM D10 using a 25-gauge needle. The marrow cells are washed twice and plated in 6 well plates at a concentration of 1×10^6 nucleated cells/cm^2 in MEM D1 0 containing 10 nM calcitriol. Cultures are fed on the third and fifth day of culture by replacing half of the medium with fresh medium containing calcitriol. Cultures are treated with enoxacin at 10 μM or vehicle control on Day 1, and when the media is refreshed.

Compound	osteoclast formation
O=C(C[N+]12CN3CN(CN(C3)C1)C2)c1ccc(Cl)cc1.[I-] [Binhib 2, 3,5,7-triaza-1-azoniatricyclo[3.3.1.13,7]decane, 1-[2-(4-chlorophenyl)-2-oxoethyl]-iodide]	without affecting

These compounds were tested against T1, interaction between recombinantly-expressed B2 subunit and pure rabbit muscle F-actin (Homo sapiens, UniProt P21281) (assay: pelleting assay of B subunit binding to F-actin). Conditions: not given.
T1 construct: made in house
Procedure: Twenty-one small molecules are tested for their ability to block interaction between recombinantly-expressed B2 subunit and pure rabbit muscle F-actin.
Recombinant B subunit (1 μM) plus/minus F-actin (2 μM)) plus/minus 100 uM inhibitor compounds were incubated for 10 minutes in 20 mM Tris/HCl (pH 7.5), 100 mM NaCl, 1 mM MgCl2, 0.2 mM CaCl2, 0.5 mM ATP, 0.2 mM DTT, then subjected to ultracentrifugation at 180,000×g for 45 min. Supernatants and pellets were collected in SDS-PAGE sample buffer, separated by SDS-PAGE, stained with Coomassie Blue, and densitometry was performed using a Flurchem 8000 (Alpha Innotech, San Leandro Calif.).
The percent inhibition was determined by densitometry of SDS-PAGE gels. The raw densitometric number obtained of the recombinant B subunit band that was pelleted with F-actin, but with no compound present, represented 0% inhibition. The amount of the raw densitometric number of the amount of recombinant B subunit that pelleted with no actin present, but with compound, represented 100% inhibition. The amount of recombinant B subunit that pelleted with actin and the compound being tested was placed as a percentage assuming a linear response.

T1 sequence (P21281 whole entry): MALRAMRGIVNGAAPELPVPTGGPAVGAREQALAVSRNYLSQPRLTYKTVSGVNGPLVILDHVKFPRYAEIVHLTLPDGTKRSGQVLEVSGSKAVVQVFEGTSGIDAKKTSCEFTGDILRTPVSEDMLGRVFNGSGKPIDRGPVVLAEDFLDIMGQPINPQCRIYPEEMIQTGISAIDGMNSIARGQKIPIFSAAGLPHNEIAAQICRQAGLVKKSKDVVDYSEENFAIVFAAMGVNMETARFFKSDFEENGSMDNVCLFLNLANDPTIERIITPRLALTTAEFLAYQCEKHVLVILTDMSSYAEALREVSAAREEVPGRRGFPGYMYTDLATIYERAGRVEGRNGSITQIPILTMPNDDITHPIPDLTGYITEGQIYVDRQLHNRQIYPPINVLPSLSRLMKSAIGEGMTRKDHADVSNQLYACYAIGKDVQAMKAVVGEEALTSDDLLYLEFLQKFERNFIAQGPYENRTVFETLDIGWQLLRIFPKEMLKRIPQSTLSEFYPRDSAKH

Compound	B subunit actin interactions in vitro	inhibition at 100 µM
O=C(C[N+]12CN3CN(CN(C3)C1)C2)c1ccc(Cl)cc1.[I-] [Binhib 2, 3,5,7-triaza-1-azoniatricyclo[3.3.1.13,7]decane, 1-[2-(4-chlorophenyl)-2-oxoethyl]-iodide]	inhibits	
CN1N(C)C12CCC1(C)C(CCC3C1CCC1(C)C3CCC1(C)O)C2 (stereo not shown) [Binhib 3, 1′,2′,10,13,17-pentamethylhexadecahydrospiro[cyclopenta[a]phenanthrene-3,3′-diaziridin]-17-ol]		7%

Same assay, conditions: 100 uM inhibitor compound; recombinant B subunit 1 μM, F-actin 2 μM; densitometry of SDS-PAGE gels

Compound	% inhibition
2,4-diamino-5-(4-((2-aminoethyl)amino)-3-(hydroxy(oxido)amino)phenyl)-6-ethylpyrimidine [Binhib 33]	1%
Cc1nc2ccccc2cc1C[N+]12CN3CN(CN(C3)C1)C2 [Binhib 30, 1-((2-methyl-3-quinolinyl)methyl)-15,3,5,7-tetraazatricyclo[3.3.1.1˜3,7˜]decane]	4%
COc1ccc(C(=O)C[N+]23CN4CN(CN(C4)C2)C3)cc1 [Binhib 41, 1-(4-methoxyphenyl)-2-(15,3,5,7-tetraazatricyclo[3.3.1.1˜3,7˜]dec-1-yl)ethanone]	4%
Clc1cc(Cl)c(C[N+]23CN4CN(CN(C4)C2)C3)cc1Cl.[Cl-] [Binhib 1, {3,5,7-Triaza-1-azoniatricyclo[3.3.1.13,7]decane}{1-[(2,}4,5-trichlorophenyl)methyl]-, chloride]	5%
CC(C)Cc1ccc(C[N+]23CN4CN(CN(C4)C2)C3)cc1 [Binhib 20, 1-(4-isobutylbenzyl)-15,3,5,7-tetraazatricyclo[3.3.1.1˜3,7˜]decane]	5%
ON=C(C[N+]12CN3CN(CN(C3)C1)C2)c1ccc(I)cc1 [Binhib 10, 1-(4-iodophenyl)-2-(15,3,5,7-tetraazatricyclo[3.3.1.1˜3,7˜]dec-1-yl)ethanone oxime]	3%
O=C(C[N+]12CN3CN(CN(C3)C1)C2)c1ccc2ccccc2c1 [Binhib 36, 1-(2-naphthyl)-2-(15,3,5,7-tetraazatricyclo[3.3.1.1˜3,7˜]dec-1-yl)ethanone]	0%
O=C(C[N+]12CN3CN(CN(C3)C1)C2)c1ccc(Br)cc1 [Binhib 24, 1-(4-bromophenyl)-2-(15,3,5,7-tetraazatricyclo[3.3.1.1˜3,7˜]dec-1-yl)ethanone]	13%
BrC=C(Br)C[N+]12CN3CN(CN(C3)C1)C2 [Binhib 18, 1-(2,3-dibromo-2-propenyl)-15,3,5,7-tetraazatricyclo[3.3.1.1˜3,7˜]decane]	2%
2-((4-methyl-1-piperazinyl)methyl)-15-indeno[1,2,3-de]quinazolin-1-ol [Binhib 15]	0%
Brc1ccc(C[N+]23CN4CN(CN(C4)C2)C3)cc1.[Br-] [Binhib 9, 3-(5,7-Triaza-1-azoniatricyclo[3.3.1.13,7]decane) (1-[(4-bromophenyl)methyl])bromide]	21%
COC(=O)C1CC23CCCN4CCC5(c6cccc(OC)c6N(C=O)C15CC2)C43 (stereo not shown) [Binhib 35, methyl 1-formyl-17-methoxyaspidofractinine-3-carboxylate]	4%

Same assay, conditions: 100 uM inhibitor compound; recombinant B subunit 1 μM, F-actin 2 μM; densitometry of SDS-PAGE gels; read-out: % inhibition

Compound	inhibition at 100 µM
O=C(C[N+]12CN3CN(CN(C3)C1)C2)c1ccc(Cl)cc1.[I-] [Binhib 2, 3,5,7-triaza-1-azoniatricyclo[3.3.1.13,7]decane, 1-[2-(4-chlorophenyl)-2-oxoethyl]-iodide]	65%
C=C1C23C(CCCC2NC)CCC2(C)C4C(C(C)=O)C(O)CC4(C)CCC123 (stereo not shown) [Binhib 26, 1-(2-hydroxy-3a,12a-dimethyl-7-(methylamino)-6-methylenehexadecahydro-cyclopenta[a]cyclopropa[e]phenanthren-1-yl)ethanone]	0%
COc1cccc(CN2CCN(N)CC2)c1 [Binhib 17, 4-(3-methoxybenzyl)-1-piperazinamine]	0%
S=C(S)NCCN1CCNCC1 [Binhib 38, 2-(1-piperazinyl)ethylcarbamodithioic acid]	3%
CCOC(=O)C(Cc1c[nH]c2ccccc12)NCCN (stereo not shown) [Binhib 5, ethyl 2-((2-aminoethyl)amino)-3-(1H-indol-3-yl)propanoate]	0%
Cn1c(=O)c2nc(SSc3nc4c(=O)n(C)c(=O)n(C)c4[nH]3)[nH]c2n(C)c1=O [Binhib 31, 8,8′-disulfanediylbis(1,3-dimethyl-1H-purine-2,6(3H,9H)-dione)]	2%

What follows are compounds tested on mature osteoclasts on bone slices (assay: ruffled membrane formation / V-ATPase trafficking in mature osteoclasts on bone slices (anti-E subunit antibody)). Conditions: concentration not given.
Type: cell-based
Procedure: FIG. 7 depicts that enoxacin (10 μM) blocks ruffled membrane formation. Mature osteoclasts on bone slices were treated with enoxacin or vehicle control for 3 days, then fixed and labeled with an anti-E subunit antibody. […] Arrows point to representative osteoclasts; The present inventors also tested the effects of enoxacin on osteoclasts that were already mature and loaded onto bone slices. In this experiment, mature osteoclasts on bone slices were treated with enoxacin or vehicle control for 3 days, then fixed and labeled with an anti-E subunit antibody. Control osteoclasts produced many ruffled membranes.

Compound	ruffled membrane formation
O=C(C[N+]12CN3CN(CN(C3)C1)C2)c1ccc(Cl)cc1.[I-] [Binhib 2, 3,5,7-triaza-1-azoniatricyclo[3.3.1.13,7]decane, 1-[2-(4-chlorophenyl)-2-oxoethyl]-iodide]	blocks
